SMILES strings stand for the structures. Like-named read-outs stand apart in the source and are kept apart here.

Assay [1] concerns tumor. Briefly: Tumor volume following administration of compound A (FIG. 3, FIG. 4). In kind it is in vivo.
The subject of assay [2] is human pancreatic cancer cell line BxPC3. Briefly: In vitro activity in human pancreatic cancer cell line BxPC3. The note with it: read-out: EC50 (nM) (±standard deviation). It is filed as cell-based. As for the experimental part: The in vitro activity of compound A was determined in the human pancreatic cancer cell line BxPC3 (normal […] status). EC50 values were determined (in 1% FBS and with 45 mg/mL has), as follows

Usually EC50 stands for the concentration giving half of the maximal effect. `COc1cc(F)c(F)c(Nc2ccc(I)cc2F)c1NS(=O)(=O)C1(C[C@H](O)CO)CC1` [Compound A, (S)-N-(3,4-difluoro-2-(2-fluoro-4-iodophenylamino)-6-methoxyphenyl)-1-(2,3-dihydroxypropyl)cyclopropane-1-sulfonamide]: the “tumor volume as a function of time” value in assay [1] (FIG. 3) and in assay [1] (FIG. 4) was “decrease in tumor volume” in each case. Further, the EC50 in assay [2] (BXPC-3, BxPC3, 1% FBS) is 15.8 ± 2.4 nM; in assay [2] (BXPC-3, BxPC3, +45 mg/mL hSA) it was 207 ± 29 nM.

(Values after US20120053211A1, “TREATMENT OF PANCREATIC CANCER” (ARDEA BIOSCIENCES, INC., priority 2009, published 2012).)
